Measured values reported in PubChem BioAssay (NCI).
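Cultured in 96-well plates, cells were exposed to test compound for 48 hours across five concentrations. Abbreviation: GI50, concentration required for 50% inhibition of growth. At the TGI there is no net growth.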

Key:
Assay in all cases: NCI-60 cell line screen, 48 h
[1] = tested on: 786-0 renal
[2] = tested on: HCT-116 colon
[3] = tested on: HOP-62 NSCLC
[4] = tested on: M14 melanoma
[5] = tested on: MDA-N
[6] = tested on: NCI-H23 lung
[7] = tested on: NCI-H522 lung
[8] = tested on: NCI/ADR-RES ovarian
[9] = tested on: RXF 393 renal
[10] = tested on: UACC-62 melanoma
[11] = tested on: SF-539 CNS

Structure (SMILES) | TGI [1] [µM] | TGI [2] [µM] | TGI [3] [µM] | TGI [4] [µM] | TGI [5] [µM] | TGI [6] [µM] | TGI [7] [µM] | TGI [8] [µM] | TGI [9] [µM] | TGI [10] [µM] | TGI [11] [µM] | GI50 [2] [µM] | GI50 [3] [µM] | GI50 [4] [µM] | GI50 [6] [µM] | GI50 [7] [µM] | GI50 [8] [µM] | GI50 [9] [µM] | GI50 [11] [µM] | GI50 [10] [µM]
CCn1ncc2c(=O)n3ncn(-c4ccc(Br)cc4)c3nc21 | > 100 | > 100 | > 100 | > 100 | > 100 | > 100 | > 100 | > 100 | > 100 | > 100 |  |  |  |  |  |  |  |  |  | 
CS(=O)(=O)Nc1ccc2ccccc2c1 | > 100 | > 100 | > 100 | > 100 | > 100 | > 100 | > 100 | > 100 |  | > 100 | > 100 |  |  |  |  |  |  |  |  | 
CCOC(=O)C(NC(=O)c1cccc(Cl)c1)(Nc1cccc(C)c1)C(F)(F)F (stereo not drawn) | 47 | 33.4 | 36.2 |  | 38.8 |  | 20.5 | 38.8 | 26.2 | 28.5 | 32.7 |  |  |  |  |  |  |  |  | 
CNC(=S)N1CCN(C(C)=O)C1=S | > 100 | > 100 | > 100 | > 100 | > 100 | > 100 | > 100 | > 100 |  | > 100 | 52.8 |  |  |  |  |  |  |  |  | 
O=C(c1ccco1)N(C(=O)N1CCC(c2ccccc2)CC1)c1ccccc1 | > 100 | > 100 |  | > 100 | > 100 | > 100 |  | 91 | 90.9 | > 100 | > 100 |  |  |  |  |  |  |  |  | 
O=C(C(=C(I)I)c1ccccc1)c1ccccc1 |  | 36.9 | 37.7 | 73.3 | 62.1 | 88.8 |  | > 100 |  | 53.4 | 52.6 |  |  |  |  |  |  |  |  | 
C=C1[C@@H]2CCC3[C@]4(C)C(CC[C@@]5(C)C(=O)O[C@H](O)[C@@H]45)[C@H](O)[C@]3(C2)[C@H]1OC1OC(CO)C(O)C(O)C1O (stereo partly drawn) | > 50 | > 50 | > 50 | > 50 | > 50 | > 50 |  | > 50 | > 50 | > 50 | > 50 |  |  |  |  |  |  |  |  | 
COc1cc2c(c(OC)c1)[C@H](C)N(Cc1ccccc1)C(C)C2 (stereo partly drawn) | > 100 | > 100 | > 100 | > 100 |  | > 100 | > 100 |  |  | > 100 | 48.4 |  |  |  |  |  |  |  |  | 
COc1cc(/C=N/N=C(\N)NO)c([N+](=O)[O-])cc1OC | > 100 | 75.1 | > 100 | > 100 |  | 99.4 | 34.4 |  | 65.2 | 59 | > 100 |  |  |  |  |  |  |  |  | 
CC[C@H](NC(=O)OC(C)(C)C)C(=O)NCP(=O)(OCc1ccc([N+](=O)[O-])cc1)OCc1ccc([N+](=O)[O-])cc1 | > 100 | > 100 | > 100 | > 100 | 86.1 | > 100 | > 100 | > 100 |  | 51.9 | 90 |  |  |  |  |  |  |  |  | 
CC[C@]12C=CCN3CCC4(c5cc([C@@]6(C(=O)OC)CC7CN(CCc8c6[nH]c6ccccc86)CC6CCCCC67)c(OC)cc5N(C)C4[C@](O)(C(=O)OC)C1OC(C)=O)[C@@H]32 (stereo partly drawn) | 11 | 0.0631 | 6.07 | 1.35 |  | < 0.01 | < 0.0165 | 0.512 | 16.9 | 1.7 | < 0.01 |  |  |  |  |  |  |  |  | 
C=C1C[C@@H]2O[C@H]3[C@H]4[C@@H](C[C@@H](C)[C@@H](OC(C)=O)[C@H]42)[C@@H](C)CO[C@@]3(C)[C@H](OC(=O)CCCCCCC)CC1=O | 29.1 | 32 | 29.8 | 29.1 | 31 | 40.1 | 42.6 | 35.5 |  | 32.1 | 38 |  |  |  |  |  |  |  |  | 
CSc1ncc2c(n1)-c1ccccc1OC2NC1CC1 (stereo not drawn) | > 100 | > 100 |  | > 100 | > 100 | > 100 | 82.5 | > 100 | > 100 | > 100 | > 100 |  |  |  |  |  |  |  |  | 
CC(C)(C)N=NC(C)(C)N=C=O | > 100 | > 100 | > 100 | > 100 |  | > 100 | > 100 |  | > 100 | > 100 | > 100 |  |  |  |  |  |  |  |  | 
Cn1c(=O)cc(NNc2ccc(Cl)c(Cl)c2)[nH]c1=O | 25.9 | 20.5 | 31.3 | 20.3 | 23.3 | 90.7 |  | 64.1 | 38.8 | 16.8 | 39.7 |  |  |  |  |  |  |  |  | 
C=C(C)[C@H]1CC23C(=O)[C@@](C)(C[C@H]2C1(C)C)C(=O)C(C(=O)C(C)C)=C3O | 35 |  | 40.4 | 31.4 | 35.7 | 43 | 36.8 | 27.8 | 29 | 29.8 |  |  |  |  |  |  |  |  |  | 
CSc1ccc(/C=C2\N=C(c3ccccc3)N(c3nc4cc(Cl)c(F)cc4s3)C2=O)cc1 | > 100 | > 100 | 98.7 | > 100 | > 100 |  |  | 99.1 | 57.5 | > 100 | 82.6 |  |  |  |  |  |  |  |  | 
c1cncc(CSc2nc3ccccc3nc2-c2cccs2)c1 | > 100 | > 100 | > 100 | > 100 |  | > 100 | > 100 |  |  |  | > 100 |  |  |  |  |  |  |  |  | 
OC(CC(O)(C(F)(F)Cl)C(F)(F)Cl)c1ccccc1 (stereo not drawn) |  | > 10 | > 10 |  | > 10 | > 10 | > 10 | > 10 | > 10 | > 10 | > 10 |  |  |  |  |  |  |  |  | 
CC(C)=C/C(CC(O)(C(F)(F)F)C(F)(F)F)=N\O | > 100 | > 100 | > 100 | > 100 |  | > 100 |  | > 100 | > 100 | > 100 | > 100 |  |  |  |  |  |  |  |  | 
CCN(CC)CCCCNc1c2ccc(Cl)cc2nc2ccc(OC)cc12 |  | 1.94 | 2.89 | 2.58 |  | 2.38 | 2.66 | 3.95 | 1.78 | 3.47 | 2.73 | 0.301 | 0.401 | 1.15 | 0.524 | 0.397 | 0.645 | 0.381 | 1.19 | 1.69
